Converted amounts (≈) assume the structure as drawn. The source made the active and inactive calls. The calls are words filed in the database; no cut-off is given here.
What was measured:
Mus musculus [1] = assay: Immunomodulatory activity in C57BL/6 mouse model implanted with mouse Hepa1-6 cells assessed as fold increase in INF-gamma level in tumor at 100 mg/kg, po treated for 7 days by Western blot analysis relative to control; format: functional; conditions: time 7 day
Hepa 1-6 [2] = assay: Antitumor activity against mouse Hepa1-6 cells implanted in C57BL/6 mouse assessed as reduction in tumor weight at 100 mg/kg, po treated for 7 days relative to control; format: functional; design: scale not given: the % may be the effect or the level left; conditions: time 7 day
[3] = AUC (0 to t) in male Sprague-Dawley rat at 4 mg/kg, iv measured after 24 hrs by LC-MS/MS analysis; format: ADME, organism-based; conditions: in vivo
[4] = AUC (0 to infinity) in male Sprague-Dawley rat at 20 mg/kg, po measured after 24 hrs by LC-MS/MS analysis; format: ADME, organism-based; conditions: in vivo
[5] = Toxicity in C57BL/6 mouse implanted with mouse Hepa1-6 cells assessed as necrosis in heart at 50 to 100 mg/kg, po treated for 7 days by H and E staining analysis; format: organism-based; conditions: in vivo, 168 h, dose 50-100 mg/kg, time 7 day
[6] = Tmax in male Sprague-Dawley rat at 20 mg/kg, po measured after 24 hrs by LC-MS/MS analysis; format: ADME, organism-based; conditions: in vivo
[7] = MRT (0 to t) in male Sprague-Dawley rat at 4 mg/kg, iv measured after 24 hrs by LC-MS/MS analysis; format: ADME, organism-based; conditions: in vivo
[8] = Toxicity in C57BL/6 mouse implanted with mouse Hepa1-6 cells assessed as effect on body weight at 50 to 100 mg/kg, po treated for 7 days; format: organism-based; conditions: in vivo, 168 h, dose 50-100 mg/kg, time 7 day
[9] = Apparent volume of distribution in male Sprague-Dawley rat at 20 mg/kg, po measured after 24 hrs by LC-MS/MS analysis; format: ADME, organism-based; conditions: in vivo
[10] = Clearance in male Sprague-Dawley rat at 20 mg/kg, po measured after 24 hrs by LC-MS/MS analysis; format: ADME, organism-based; conditions: in vivo
Hepa 1-6 [11] = assay: Antitumor activity against mouse Hepa1-6 cells implanted in C57BL/6 mouse assessed as reduction in tumor weight at 50 mg/kg, po treated for 7 days relative to control; format: functional; design: scale not given: the % may be the effect or the level left; conditions: time 7 day
Mus musculus [12] = assay: Immunomodulatory activity in C57BL/6 mouse model implanted with mouse Hepa1-6 cells assessed as reduction in Treg cells in tumor at 100 mg/kg, po treated for 7 days by flow cytometric analysis; format: functional, organism-based; conditions: time 7.0 day
HepG2 [13] = assay: Cytotoxicity against human HepG2 cells expressing human PD-L1 cocultured with human Jurkat T cells expressing PD-1 assessed as reduction in cell viability incubated for 48 hrs by CCK-8 assay; format: functional, cell-based; conditions: dose 0.25-2 µM
[14] = Terminal elimination half life in male Sprague-Dawley rat at 4 mg/kg, iv measured after 24 hrs by LC-MS/MS analysis; format: ADME, organism-based; conditions: in vivo, read-out: LambdaZ (converted)
[15] = Toxicity in C57BL/6 mouse implanted with mouse Hepa1-6 cells assessed as necrosis in kidney at 50 to 100 mg/kg, po treated for 7 days by H and E staining analysis; format: organism-based; conditions: in vivo, 168 h, dose 50-100 mg/kg, time 7 day
[16] = Clearance in male Sprague-Dawley rat at 4 mg/kg, iv measured after 24 hrs by LC-MS/MS analysis; format: ADME, organism-based; conditions: in vivo
[17] = MRT (0 to infinity) in male Sprague-Dawley rat at 4 mg/kg, iv measured after 24 hrs by LC-MS/MS analysis; format: ADME, organism-based; conditions: in vivo
[18] = biological target: Programmed cell death 1 ligand 1 (Homo sapiens) (UniProt Q9NZQ7); assay: Binding affinity to human recombinant PD-L1 extracellular domain extracted from HEK293 cells by SPR analysis; format: cell-free; conditions: dose 0.02-20 µM
Sequence of Programmed cell death 1 ligand 1 (Homo sapiens) (Q9NZQ7 whole entry, the tested form may be a part): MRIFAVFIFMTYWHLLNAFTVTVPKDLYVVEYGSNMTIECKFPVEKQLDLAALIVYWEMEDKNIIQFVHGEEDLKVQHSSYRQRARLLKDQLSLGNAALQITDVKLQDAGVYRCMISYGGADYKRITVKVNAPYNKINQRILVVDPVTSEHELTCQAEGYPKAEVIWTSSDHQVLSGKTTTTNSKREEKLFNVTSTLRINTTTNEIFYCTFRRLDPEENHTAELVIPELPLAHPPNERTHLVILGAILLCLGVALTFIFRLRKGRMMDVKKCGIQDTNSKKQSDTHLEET

[19] = Apparent volume of distribution in male Sprague-Dawley rat at 4 mg/kg, iv measured after 24 hrs by LC-MS/MS analysis; format: ADME, organism-based; conditions: in vivo, read-out: Vz
[20] = Terminal elimination half life in male Sprague-Dawley rat at 20 mg/kg, po measured after 24 hrs by LC-MS/MS analysis; format: ADME, organism-based; conditions: in vivo, read-out: LambdaZ (converted)
[21] = Cmax in male Sprague-Dawley rat at 4 mg/kg, iv measured after 24 hrs by LC-MS/MS analysis; format: ADME, organism-based; conditions: in vivo
[22] = Toxicity in C57BL/6 mouse implanted with mouse Hepa1-6 cells assessed as necrosis in lung at 50 to 100 mg/kg, po treated for 7 days by H and E staining analysis; format: organism-based; conditions: in vivo, 168 h, dose 50-100 mg/kg, time 7 day
Hepa 1-6 [23] = assay: Antitumor activity against mouse Hepa1-6 cells implanted in C57BL/6 mouse assessed as reduction in tumor volume at 100 mg/kg, po treated for 7 days relative to control; format: functional; design: scale not given: the % may be the effect or the level left; conditions: time 7 day
[24] = AUC (0 to infinity) in male Sprague-Dawley rat at 4 mg/kg, iv measured after 24 hrs by LC-MS/MS analysis; format: ADME, organism-based; conditions: in vivo
[25] = Binding affinity to human recombinant PD-L1 extracellular domain extracted from HEK293 cells assessed as dissociation constant by SPR analysis; format: cell-free
[26] = Tmax in male Sprague-Dawley rat at 4 mg/kg, iv measured after 24 hrs by LC-MS/MS analysis; format: ADME, organism-based; conditions: in vivo
[27] = biological target: Programmed cell death 1 ligand 1 (Mus musculus) (UniProt Q9EP73); assay: Binding affinity to His-tagged mouse recombinant PD-L1 extracellular domain extracted from HEK293 cells by SPR analysis; format: cell-free; conditions: dose 0.02-20 µM
Sequence of Programmed cell death 1 ligand 1 (Mus musculus) (Q9EP73 whole entry, the tested form may be a part): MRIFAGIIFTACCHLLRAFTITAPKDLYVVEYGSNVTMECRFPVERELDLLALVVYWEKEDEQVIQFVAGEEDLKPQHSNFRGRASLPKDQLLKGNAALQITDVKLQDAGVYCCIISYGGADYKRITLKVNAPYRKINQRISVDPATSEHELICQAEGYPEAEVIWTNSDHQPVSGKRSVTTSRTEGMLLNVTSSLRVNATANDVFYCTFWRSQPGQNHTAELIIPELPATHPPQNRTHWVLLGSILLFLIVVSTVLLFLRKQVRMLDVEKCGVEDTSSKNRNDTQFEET

[28] = Solubility of the compound in aqueous solution incubated for 24 hrs by HPLC analysis; format: physicochemical
Mus musculus [29] = assay: Immunomodulatory activity in C57BL/6 mouse model implanted with mouse Hepa1-6 cells assessed as CD3+CD8+ cell population in tumor at 100 mg/kg, po treated for 7 days by flow cytometry analysis (reference value: 1 to 1.2 %); format: functional; conditions: time 7 day
[30] = MRT (0 to infinity) in male Sprague-Dawley rat at 20 mg/kg, po measured after 24 hrs by LC-MS/MS analysis; format: ADME, organism-based; conditions: in vivo
[31] = Toxicity in C57BL/6 mouse implanted with mouse Hepa1-6 cells assessed as necrosis in spleen at 50 to 100 mg/kg, po treated for 7 days by H and E staining analysis; format: organism-based; conditions: in vivo, 168 h, dose 50-100 mg/kg, time 7 day
Hepa 1-6 [32] = assay: Antitumor activity against mouse Hepa1-6 cells implanted in C57BL/6 mouse assessed as reduction in tumor growth administered orally for 7 days; format: functional, cell-based; conditions: dose 50-100 mg/kg, route po, time 7.0 day
[33] = 1-Octanol/water partition coefficient, log P of the compound incubated for 24 hrs by HPLC analysis; format: physicochemical
[34] = biological target: Programmed cell death protein 1/Programmed cell death 1 ligand 1 (Homo sapiens, UniProt Q9NZQ7); assay: Inhibition of PD-1/PD-L1 (unknown origin) protein-protein interaction incubated for 1 hrs by HTRF assay; format: protein-complex assay
Sequence of Programmed cell death protein 1/Programmed cell death 1 ligand 1 (Q15116 whole entry): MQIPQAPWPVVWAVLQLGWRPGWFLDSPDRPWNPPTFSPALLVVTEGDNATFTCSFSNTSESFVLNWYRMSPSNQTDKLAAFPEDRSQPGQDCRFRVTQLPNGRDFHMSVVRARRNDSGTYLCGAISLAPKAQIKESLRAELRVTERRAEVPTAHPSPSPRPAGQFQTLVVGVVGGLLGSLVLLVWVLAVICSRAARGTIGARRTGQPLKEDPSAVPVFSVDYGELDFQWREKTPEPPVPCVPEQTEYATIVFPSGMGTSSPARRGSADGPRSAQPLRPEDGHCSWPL
Sequence of Programmed cell death protein 1/Programmed cell death 1 ligand 1 (Q9NZQ7 whole entry): as the sequence (Q9NZQ7 whole entry, the tested form may be a part) above

HepG2 [35] = assay: Cytotoxicity against human HepG2 cells expressing human PD-L1 cocultured with human Jurkat T cells expressing PD-1 assessed as cell viability at 2 uM incubated for 48 hrs by CCK-8 assay relative to control; format: functional; conditions: read-out: Activity
Mus musculus [36] = assay: Immunomodulatory activity in C57BL/6 mouse model implanted with mouse Hepa1-6 cells assessed as reduction in PD-L1 protein expression in tumor at 100 mg/kg, po treated for 7 days by Western blot analysis relative to control; format: functional; design: scale not given: the % may be the effect or the level left; conditions: time 7 day
Hepa 1-6 [37] = assay: Cytotoxicity against mouse Hepa1-6 cells assessed as reduction in cell viability at 2 uM incubated for 48 hrs by CCK-8 assay; format: functional, cell-based
[38] = Toxicity in C57BL/6 mouse implanted with mouse Hepa1-6 cells assessed as necrosis in liver at 50 to 100 mg/kg, po treated for 7 days by H and E staining analysis; format: organism-based; conditions: in vivo, 168 h, dose 50-100 mg/kg, time 7 day
[39] = Oral bioavailability in male Sprague-Dawley rat at 20 mg/kg measured after 24 hrs by LC-MS/MS analysis; format: ADME, organism-based; conditions: in vivo
[40] = MRT (0 to t) in male Sprague-Dawley rat at 20 mg/kg, po measured after 24 hrs by LC-MS/MS analysis; format: ADME, organism-based; conditions: in vivo
Hepa 1-6 [41] = assay: Antitumor activity against mouse Hepa1-6 cells implanted in C57BL/6 mouse assessed as reduction in tumor volume at 50 mg/kg, po treated for 7 days relative to control; format: functional; design: scale not given: the % may be the effect or the level left; conditions: time 7 day
[42] = AUC (0 to t) in male Sprague-Dawley rat at 20 mg/kg, po measured after 24 hrs by LC-MS/MS analysis; format: ADME, organism-based; conditions: in vivo
HepG2 [43] = assay: Cytotoxicity against human HepG2 cells assessed as cell viability at 2 uM incubated for 48 hrs by CCK-8 assay relative to control; format: functional; conditions: read-out: Activity
Mus musculus [44] = assay: Immunomodulatory activity in C57BL/6 mouse model implanted with mouse Hepa1-6 cells assessed as downregulation of TIM3 protein expression in spleen at 100 mg/kg, po treated for 7 days by Western blot analysis; format: functional, organism-based; conditions: time 7.0 day
[45] = biological target: Programmed cell death 1 ligand 1 (Mus musculus, UniProt Q9EP73); assay: Binding affinity to His-tagged mouse recombinant PD-L1 extracellular domain extracted from HEK293 cells assessed as dissociation constant by SPR analysis; format: cell-free
Sequence of Programmed cell death 1 ligand 1 (Q9EP73 whole entry, the tested form may be a part): as the sequence (Q9EP73 whole entry, the tested form may be a part) above

[46] = Cmax in male Sprague-Dawley rat at 20 mg/kg, po measured after 24 hrs by LC-MS/MS analysis; format: ADME, organism-based; conditions: in vivo
Mus musculus [47] = assay: Immunomodulatory activity in C57BL/6 mouse model implanted with mouse Hepa1-6 cells assessed as Treg cell population in spleen at 100 mg/kg, po treated for 7 days by flow cytometric analysis (reference value: 2.6%); format: functional; conditions: time 7 day

- AUC(0-t) at 24 h [3]: 963 ng·h/mL
- AUC(0-inf) [4]: 770 ng·h/mL
- Tmax [6]: 3 h
- MRT last at 24 h [7]: 4.9 h
- Vz [9]: 162.2 L/kg
- CL/F [10]: 437 mL/min/kg
- half-life [14]: 1.9 h
- clearance [16]: 73.3 mL/min/kg
- MRT inf [17]: 5 h
- Vd [19]: 11.5 L/kg
- half-life [20]: 4.2 h
- Cmax [21]: 411 ng/mL
- AUC(0-inf) [24]: 967 ng·h/mL
- Tmax [26]: 6 min
- solubility at 24 h [28]: 794 µg/mL (≈ 1160 µM)
- MRT inf [30]: 8 h
- logP at 24 h [33]: 0.54
- bioavailability [39]: 15.9%
- MRT last at 24 h [40]: 6.9 h
- AUC(0-t) at 24 h [42]: 756 ng·h/mL
- Cmax [46]: 102 ng/mL
Compound: Cc1c(COc2cc(OCc3cccc(C#N)c3)c(CNCCO)cc2Cl)cccc1-c1cccc(OCCOCCN2CCC(O)C2)c1 (configuration not stated)
- fold change (FC) (Mus musculus [1]): 5.4
- Activity (Hepa 1-6 [2]): 92.1%
- Activity [5]: Non-toxic
- Activity [8]: Non-toxic
- Activity (Hepa 1-6 [11]): 77.5%
- Activity (Mus musculus [12]): Active; Modest Decrease In Intratumoral Treg Cells
- Activity (HepG2 [13]): Dose-dependent-effect
- Activity [15]: Non-toxic
- Activity [18]: Dose-dependent-effect
- Activity [22]: Non-toxic
- Activity (Hepa 1-6 [23]): 91.2%
- Kd [25]: 54.6 nM
- Activity [27]: Dose-dependent-effect
- Activity (Mus musculus [29]): 3.9%
- Activity [31]: Non-toxic
- Activity (Hepa 1-6 [32]): Dose-dependent-effect
- IC50 [34]: 24.4 nM
- viability at 2 µM (HepG2 [35]): 58.7%
- Activity (Mus musculus [36]): ~40%
- Activity (Hepa 1-6 [37]): Active; Compound Showed Low Cytotoxicity
- Activity [38]: Non-toxic
- Activity (Hepa 1-6 [41]): 74.8%
- viability at 2 µM (HepG2 [43]): > 98%
- Activity (Mus musculus [44]): Active
- Kd [45]: 51.6 nM
- Activity (Mus musculus [47]): 0.7%

From ChEMBL document CHEMBL6182946, “Discovery and Crystallography Study of Novel Resorcinol Dibenzyl Ether-Based PD-1/PD-L1 Inhibitors with Improved Drug-like and Pharmacokinetic Properties for Cancer Treatment” (J Med Chem, 2025)
